Laboratory results reported in patent US10975056B2 (GlaxoSmithKline Intellectual Property Development Limited, priority 2016, dated 2021).
Counter-ions that a name gives are not always drawn. Like-named read-outs stand apart in the source and are kept apart here.

Assays:
MV-4-11 AML cells = assay: MV-4-11 cell proliferation assay (CellTiter-Glo, 6 days); type: cell-based; conditions: Homo sapiens, MV4-11, 144 h; 6 days treatment; binning as pXC50; read-out: MV4-11 Anti-proliferative activity (EC50 category)
Protocol: MV-4-11 Anti-Proliferative Activity (pEC50 Category)
Cell proliferation assay. Optimal cell seeding density was determined empirically for MV-4-11 AML cells by examining the growth of a wide range of seeding densities in a 384-well format to identify conditions that permitted maximal and continued proliferation for 6 days. MV-4-11 cells were plated in duplicate plates 24 hours before treatment with a 20-point two-fold dilution series of compound or 0.15% DMSO. Plates were incubated for 6 days at 37° C. in 5% CO2. Cells were then lysed with CellTiter-Glo (CTG) (Promega) and chemiluminescent signal was detected with an appropriate microplate reader. In addition, an untreated plate of cells was harvested at the time of compound addition (T0) to quantify the initial cell density. CTG values obtained after 6 days of treatment were expressed as a percent of the T0 value and plotted against compound concentration. Data were fit with a four parameter equation to generate a concentration response curve from which growth IC50 values were calculated.

DNMT3B = DNMT3B (Homo sapiens (Human), UniProt Q9UBC3); assay: DNMT3B breaklight assay; type: biochemical
human DNMT3a/3l = human DNMT3a/3l (Homo sapiens (Human), UniProt Q9Y6K1); assay: DNMT3a/3l breaklight assay; type: biochemical
human DNMT3a/3l, sequence (Q9Y6K1 whole entry, looked up): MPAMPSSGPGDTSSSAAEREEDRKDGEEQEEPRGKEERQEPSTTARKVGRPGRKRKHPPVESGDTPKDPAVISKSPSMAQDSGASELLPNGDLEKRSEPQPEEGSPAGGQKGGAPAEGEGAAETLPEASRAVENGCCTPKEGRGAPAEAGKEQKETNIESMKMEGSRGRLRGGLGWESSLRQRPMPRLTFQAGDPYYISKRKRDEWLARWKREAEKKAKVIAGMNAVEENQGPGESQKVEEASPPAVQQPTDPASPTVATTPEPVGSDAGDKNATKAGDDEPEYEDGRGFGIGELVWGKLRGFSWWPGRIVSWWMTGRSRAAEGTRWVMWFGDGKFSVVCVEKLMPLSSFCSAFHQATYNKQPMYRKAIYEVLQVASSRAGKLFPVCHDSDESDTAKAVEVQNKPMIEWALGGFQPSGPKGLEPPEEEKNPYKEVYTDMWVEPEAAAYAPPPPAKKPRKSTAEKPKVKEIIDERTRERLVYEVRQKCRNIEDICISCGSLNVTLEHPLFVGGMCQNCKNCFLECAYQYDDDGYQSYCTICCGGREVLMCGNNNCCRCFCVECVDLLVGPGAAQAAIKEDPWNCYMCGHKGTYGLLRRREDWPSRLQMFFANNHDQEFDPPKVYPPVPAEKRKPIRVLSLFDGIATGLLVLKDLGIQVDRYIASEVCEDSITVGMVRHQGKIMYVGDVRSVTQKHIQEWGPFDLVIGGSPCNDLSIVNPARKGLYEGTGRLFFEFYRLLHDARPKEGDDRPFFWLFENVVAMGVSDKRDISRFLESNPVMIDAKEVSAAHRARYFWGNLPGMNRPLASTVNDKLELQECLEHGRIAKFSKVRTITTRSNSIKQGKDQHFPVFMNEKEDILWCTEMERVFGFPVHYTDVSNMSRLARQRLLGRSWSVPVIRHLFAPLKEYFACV
human DNMT3a/3l, sequence (Q9UJW3 whole entry partner, looked up): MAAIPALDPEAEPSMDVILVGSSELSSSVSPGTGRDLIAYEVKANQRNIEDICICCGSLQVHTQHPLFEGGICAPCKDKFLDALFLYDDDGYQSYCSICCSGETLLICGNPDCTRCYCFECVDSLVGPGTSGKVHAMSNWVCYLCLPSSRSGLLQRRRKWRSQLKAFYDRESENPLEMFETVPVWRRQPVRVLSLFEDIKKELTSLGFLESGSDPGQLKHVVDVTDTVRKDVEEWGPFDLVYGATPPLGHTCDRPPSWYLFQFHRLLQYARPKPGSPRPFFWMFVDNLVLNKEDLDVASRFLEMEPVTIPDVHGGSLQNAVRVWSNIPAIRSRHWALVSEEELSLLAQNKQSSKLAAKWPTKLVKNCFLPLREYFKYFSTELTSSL

human full length DNMT1 = human full length DNMT1 (Homo sapiens (Human), UniProt P26358); assay: DNMT1 breaklight assay; type: biochemical; conditions: repeated experimental runs, read-out: average IC50 against DNMT1
human full length DNMT1, sequence (P26358 whole entry): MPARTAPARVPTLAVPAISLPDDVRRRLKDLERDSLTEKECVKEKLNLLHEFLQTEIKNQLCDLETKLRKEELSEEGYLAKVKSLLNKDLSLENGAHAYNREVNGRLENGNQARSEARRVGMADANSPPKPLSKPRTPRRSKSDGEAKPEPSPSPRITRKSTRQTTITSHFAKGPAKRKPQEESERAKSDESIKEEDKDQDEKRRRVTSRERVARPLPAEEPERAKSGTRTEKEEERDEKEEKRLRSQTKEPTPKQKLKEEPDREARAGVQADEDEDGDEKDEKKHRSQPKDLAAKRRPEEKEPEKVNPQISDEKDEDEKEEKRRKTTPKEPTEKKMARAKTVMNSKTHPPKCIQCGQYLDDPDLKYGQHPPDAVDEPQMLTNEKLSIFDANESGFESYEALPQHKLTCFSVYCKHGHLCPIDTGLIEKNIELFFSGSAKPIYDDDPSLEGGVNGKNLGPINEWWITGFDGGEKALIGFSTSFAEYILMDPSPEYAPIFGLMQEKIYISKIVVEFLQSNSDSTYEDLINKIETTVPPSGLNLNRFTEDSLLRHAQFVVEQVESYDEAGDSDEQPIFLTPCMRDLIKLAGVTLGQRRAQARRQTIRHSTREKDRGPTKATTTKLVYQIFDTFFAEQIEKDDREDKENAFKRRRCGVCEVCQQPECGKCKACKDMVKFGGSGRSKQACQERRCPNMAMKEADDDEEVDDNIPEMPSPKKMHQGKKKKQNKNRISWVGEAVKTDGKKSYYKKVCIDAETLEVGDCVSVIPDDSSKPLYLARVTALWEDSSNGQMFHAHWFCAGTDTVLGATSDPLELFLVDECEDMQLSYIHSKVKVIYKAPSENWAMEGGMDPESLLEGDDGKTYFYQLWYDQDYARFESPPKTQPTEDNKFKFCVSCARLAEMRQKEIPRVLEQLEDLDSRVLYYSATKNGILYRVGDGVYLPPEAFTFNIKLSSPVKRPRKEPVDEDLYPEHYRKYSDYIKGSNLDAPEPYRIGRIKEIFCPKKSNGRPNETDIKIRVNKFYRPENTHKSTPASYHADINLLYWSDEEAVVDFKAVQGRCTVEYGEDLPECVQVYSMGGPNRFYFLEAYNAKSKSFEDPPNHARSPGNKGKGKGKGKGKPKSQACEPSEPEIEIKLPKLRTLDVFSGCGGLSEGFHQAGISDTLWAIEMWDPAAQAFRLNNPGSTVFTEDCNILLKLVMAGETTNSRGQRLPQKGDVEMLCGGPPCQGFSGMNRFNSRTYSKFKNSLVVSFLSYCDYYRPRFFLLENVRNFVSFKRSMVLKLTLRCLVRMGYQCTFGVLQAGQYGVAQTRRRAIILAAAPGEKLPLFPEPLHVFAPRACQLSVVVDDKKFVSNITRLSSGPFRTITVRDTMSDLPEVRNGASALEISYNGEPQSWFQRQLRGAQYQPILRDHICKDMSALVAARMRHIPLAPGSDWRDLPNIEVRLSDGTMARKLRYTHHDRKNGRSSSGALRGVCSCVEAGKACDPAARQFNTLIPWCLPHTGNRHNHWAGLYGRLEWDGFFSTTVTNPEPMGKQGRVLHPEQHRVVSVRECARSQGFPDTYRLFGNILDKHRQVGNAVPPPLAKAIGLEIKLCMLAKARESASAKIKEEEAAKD
Protocol: DNMT1 breaklight in vitro assays were conducted in a total volume of 50 μl in a standard 384 well format, using black non-binding surface microplates (Corning 3575). Five μl of human full length DNMT1 (produced internally), used at a final concentration of 40 nM, was added to 5 μl of substrate mixture containing final concentrations of 125 nM hemi methylated oligonucleotide (synthesized at ATD Bio; 5′-FAM-[…]5[…]5G5TAGAT-3′ where 5=methyl deoxycitidine) and 2 μM ultrapure SAM (Cisbio #62SAHZLD). Negative control wells used 5 μl of DNMT1 and 5 μl of oligonucleotide but 0 μM SAM. All reagents were made up in 1× assay buffer (20 mM Tris pH 6.8, 25 mM NaCl, 0.5 mM MgCl2, 0.01% Triton X100 and 1 mM DTT). The reaction was incubated at 26° C. for 45 min and then stopped with the addition of 40 μl detection reagent. Detection reagent, made up in 1× Gla assay buffer (20 mM Tris pH 8.0, 80 mM NaCl, 0.75 mM MgCl2, 0.01% Triton X100 and 1 mM DTT) has a final concentration of 100 μM SAH (Sigma #A9384) and 0.0008 units/μl Gla1 restriction endonuclease (Sibenzyme #E494). Following addition of the detection reagent the plate was incubated in the dark at room temperature for 5 hr. Fluorescence intensity was then measured on the PHERAstar FS (BMG Labtech) at Ex 485 nm and Em 520 nm, with a gain of 400 and an integration time of 100 ms.

[1] = test system: human hemoglobin transgenic mice (sickle cell disease model); assay: Sickle cell mouse model, fetal hemoglobin induction in vivo; conditions: for increase in % F RBCs / increase in % F reticulocytes: 2 week dose period; for increase in % HbF protein: two weeks
Excerpt: A mouse model of sickle cell disease was utilized to measure the in vivo efficacy of Compound A previously shown to have potent in vitro activity in human primary erythroid progenitor cells derived from normal bone marrow or sickle cell patient peripheral blood mononuclear cells.
The in vivo activity of Compound A was investigated in the sickle cell mouse model in accordance with US/UK standards of animal care.
Male and female human hemoglobin transgenic mice [B6; 129-Hbatm1(HBA)Tow/Hbbtm2(HBG1,HBB*)Tow/J Mice (Jackson Laboratories, Me.)] were approximately 6-8 weeks old and weighed approximately 15-25 grams at the initiation of the studies. To the extent possible, groups were gender balanced and comprised of 6 mice.
Mice were administered vehicle (10% DMA/90% PEG400), 10 or 50 mg/kg Compound A twice daily (BID) by oral route five days per week, over a two week period.
At the end of the dosing period, mice were euthanized by CO2 asphyxiation and blood from the vena cava was collected into EDTA tubes for fetal hemoglobin analysis. % HbF protein was determined by high performance liquid chromatography and % F cells (HbF expressing erythrocytes) were determined by flow cytometry. The mouse monoclonal anti-human HbF antibody conjugated to APC (Life Technologies, Grand Island, N.Y.) was used to identify HbF expressing erythroid cells. The nuclear dye, syto16, (Life Technologies) was used to separate the reticulocyte and RBC populations. Protein and cellular data were collected on the Bio-Rad D10 analyzer (Bio-Rad, Benicia, Calif.) and the FACs Canto I (BD BioSciences, San Jose, Calif.) respectively. Flow cytometry data was analyzed with Flowjo v7 software (Treestar, Inc Ashland. Oreg.). Group mean and standard deviation were determined for the control and treatment groups. Data were graphed and analyzed using 1-Way ANOVA with Tukey post test (Graphpad Prism v5 [La Jolla, Calif.]).

[2] = read-out: DNMT3B Breaklight IC50
[3] = read-out: DNMT3A Breaklight IC50
[4] = repeated experimental runs, read-out: average IC50, DNMT3B breaklight assay
[5] = repeated experimental runs, read-out: average IC50, DNMT3A breaklight assay

`CCc1c(C#N)c(SC(C(N)=O)c2ccccc2)nc(N2CCNCC2)c1C#N` (stereo not drawn) [Example 55, 2-((3,5-Dicyano-4-ethyl-6-(piperazin-1-yl)pyridin-2-yl)thio)-2-phenylacetamide] gave an EC50 (MV-4-11 AML cells) of 1 to 31.6 µM, an IC50 (DNMT3B; [2]) of 272 µM and an IC50 (human DNMT3a/3l; [3]) greater than 500 µM.
`CCc1c(C#N)c(SC(C(N)=O)c2ccccc2)nc(N2CCC23CCNCC3)c1C#N` (stereo not drawn) [Example 38, 2-((3,5-Dicyano-4-ethyl-6-(1,7-diazaspiro[3.5]nonan-1-yl)pyridin-2-yl)thio)-2-phenylacetamide trifluoroacetate] showed an EC50 (MV-4-11 AML cells) of 1 to 31.6 µM and an IC50 (human full length DNMT1) greater than 0.75 µM.
`N#Cc1c(SC(C(N)=O)c2ccncc2)nc(N2CCOCC2)c(C#N)c1C1CC1` (stereo not drawn) [Example 9, 2-((3,5-dicyano-4-cyclopropyl-6-morpholinopyridin-2-yl)thio)-2-(pyridin-4-yl)acetamide] showed an IC50 (DNMT3B; [2]) greater than 500 µM, an IC50 (DNMT3B; [4]) greater than 500 µM and an IC50 (human DNMT3a/3l; [3]) greater than 500 µM. The IC50 (human DNMT3a/3l; [5]) was greater than 500 µM and the IC50 (human full length DNMT1) was greater than 0.75 µM.
`CN1CCN(CC2CCN(c3nc(SC(C(N)=O)c4ccccc4)c(C#N)c(C4CC4)c3C#N)CC2)CC1` (stereo not drawn) [Example 125, 2-((3,5-Dicyano-4-cyclopropyl-6-(4-((4-methylpiperazin-1-yl)methyl)piperidin-1-yl)pyridin-2-yl)thio-2-phenylacetamide trifluoroacetate] showed an EC50 (MV-4-11 AML cells) of 0.316 to 1 µM, an IC50 (DNMT3B; [2]) of 75 µM and an IC50 (human DNMT3a/3l; [3]) of 322 µM.
Molecule `N#Cc1c(SC(C(N)=O)c2ccccc2)nc(N2CCOC(CO)C2)c(C#N)c1C1CC1` (stereo not drawn) [Example 63, 2-((3,5-Dicyano-4-cyclopropyl-6-(2-(hydroxymethyl)morpholino)pyridin-2-yl)thio)-2-phenylacetamide] has an EC50 (MV-4-11 AML cells) of 1 to 31.6 µM and an IC50 (human full length DNMT1) greater than 0.75 µM.
In the case of `CCc1c(C#N)c(SC(C(N)=O)c2ccccc2)nc(N2CCC(O)CC2)c1C#N` (stereo not drawn) [Example 48, 2-((3,5-Dicyano-4-ethyl-6-(4-hydroxypiperidin-1-yl)pyridin-2-yl)thio)-2-phenylacetamide], the IC50 (DNMT3B; [2]) is reported as greater than 500 µM, the IC50 (human DNMT3a/3l; [3]) is reported as greater than 500 µM and the IC50 (human full length DNMT1) is reported as 0.89 µM.
For `CCc1c(C#N)c(SC(C(N)=O)c2ccccc2)nc(N(C)C)c1C#N` (stereo not drawn) [Compound A, 2-{[3,5-dicyano-6-(dimethylamino)-4-ethylpyridin-2-yl]sulfanyl}-2-phenylacetamide], the “increase in % F RBCs” value ([1]; 10 mg/kg BID oral, p<0.001) was 6 fold, the “increase in % F reticulocytes” value ([1]; 10 mg/kg BID oral, p<0.001) was 4 fold and the “increase in % HbF protein” value ([1]; 10 mg/kg BID oral, p<0.05) was 5.4 fold. For the same molecule, the “increase in % F RBCs” value ([1]; 50 mg/kg BID oral, p<0.001) was 8 fold, the “increase in % F reticulocytes” value ([1]; 50 mg/kg BID oral, p<0.001) was 9 fold and the “increase in % HbF protein” value ([1]; 50 mg/kg BID oral, p<0.001) was 10.3 fold.
Work on `CC(Sc1nc(N2CCCNCC2)c(C#N)c(C2CC2)c1C#N)C(N)=O` (stereo not drawn) [Example 46, 2-((3,5-dicyano-4-cyclopropyl-6-(1,4-diazepan-1-yl)pyridin-2-yl)thio)propanamide] yielded an EC50 (MV-4-11 AML cells) of 1 to 31.6 µM, an IC50 (DNMT3B; [2]) greater than 500 µM and an IC50 (human DNMT3a/3l; [3]) greater than 500 µM.
In the case of `CCc1c(C#N)c(N[C@@H](C(N)=O)c2ccccc2)nc(N2CCCNCC2)c1C#N` [Example 41, (R)-2-((3,5-dicyano-6-(1,4-diazepan-1-yl)-4-ethylpyridin-2-yl)amino)-2-phenylacetamide], the IC50 (DNMT3B; [2]) is reported as greater than 500 µM, the IC50 (DNMT3B; [4]) is reported as greater than 500 µM and the IC50 (human DNMT3a/3l; [3]) is reported as greater than 500 µM. It also gave an IC50 (human DNMT3a/3l; [5]) greater than 500 µM and an IC50 (human full length DNMT1) greater than 0.75 µM.
In the case of `CCc1c(C#N)c(SC(C(N)=O)c2ccccc2)nc(N2CCCN(C)CC2)c1C#N` (stereo not drawn) [Example 56, 2-((3,5-Dicyano-4-ethyl-6-(4-methyl-1,4-diazepan-1-yl)pyridin-2-yl)thio)-2-phenylacetamide], the EC50 (MV-4-11 AML cells) is reported as 1 to 31.6 µM, the IC50 (DNMT3B; [2]) is reported as greater than 500 µM and the IC50 (DNMT3B; [4]) is reported as greater than 500 µM. The IC50 (human DNMT3a/3l; [3]) was greater than 500 µM, the IC50 (human DNMT3a/3l; [5]) was greater than 500 µM and the IC50 (human full length DNMT1) was no more than 0.5 µM.
For `CCc1c(C#N)c(SC(C(N)=O)c2ccccc2)nc(N2CCOCC2)c1C#N` (stereo not drawn) [Example 57, 2-((3,5-Dicyano-4-ethyl-6-morpholinopyridin-2-yl)thio)-2-phenylacetamide], the EC50 (MV-4-11 AML cells) was 0.316 to 1 µM, the IC50 (DNMT3B; [2]) was greater than 500 µM and the IC50 (human DNMT3a/3l; [3]) was greater than 500 µM.
`CN1CCN(C2CCN(c3nc(SC(C(N)=O)c4ccccc4)c(C#N)c(C4CC4)c3C#N)CC2)CC1` (stereo not drawn) [Example 40, 2-((3,5-Dicyano-4-cyclopropyl-6-(4-(4-methylpiperazin-1-yl)piperidin-1-yl)pyridin-2-yl)thio)-2-phenylacetamide] showed an EC50 (MV-4-11 AML cells) of 0.316 to 1 µM and an IC50 (human full length DNMT1) of no more than 0.5 µM.
`CCc1c(C#N)c(SC(C(N)=O)c2ccccc2)nc(N2CCNC(=O)CC2)c1C#N` (stereo not drawn) [Example 8, 2-{[3,5-dicyano-4-ethyl-6-(5-oxo-1,4-diazepan-1-yl)pyridin-2-yl]sulfanyl}-2-phenylacetamide] gave an EC50 (MV-4-11 AML cells) of 1 to 31.6 µM, an IC50 (DNMT3B; [2]) greater than 500 µM and an IC50 (DNMT3B; [4]) greater than 500 µM. For the same molecule, the IC50 (human DNMT3a/3l; [3]) was greater than 500 µM, the IC50 (human DNMT3a/3l; [5]) was greater than 500 µM and the IC50 (human full length DNMT1) was greater than 0.75 µM.
With `CCc1c(C#N)c(SC(C(N)=O)c2ccccc2)nc(N2CCN(CC)CC2)c1C#N` (stereo not drawn) [Example 35, 2-((3,5-dicyano-4-ethyl-6-(4-ethylpiperazin-1-yl)pyridin-2-yl)thio)-2-phenylacetamide] the IC50 (DNMT3B; [2]) was greater than 500 µM, the IC50 (DNMT3B; [4]) was greater than 500 µM and the IC50 (human DNMT3a/3l; [3]) was greater than 500 µM. The IC50 (human DNMT3a/3l; [5]) was greater than 500 µM and the IC50 (human full length DNMT1) was greater than 0.75 µM.
